Results reported in PMC3325286, “Structural and Functional Diversity of Acidic Scorpion Potassium Channel Toxins” (PLoS ONE, 2012).
Like-named read-outs stand apart in the source and are kept apart here. Positions of bridges follow the written chain, without caps; N, C: chain ends. Residues, ends and D or L forms follow the SMILES beside them. No end group written: not given here.

Columns and labels:
[1] = biological target: T1, KCNQ1 channel (Homo sapiens, UniProt P15382+P51787)
[2] = biological target: T1, KCNQ1 channel; assay: cell-based; details: for inhibition at 10 µM: HEK293, read-out: Inhibition of KCNQ1 channel current; for inhibition at 1 µM: HEK293, read-out: Inhibition of KCNQ1 channel current, ImKTx104 and mutants
[3] = test system: SKCa channel; assay: Patch-clamp inhibition of SKCa channel current in transfected HEK293 cells; assay type: cell-based; details: 1 µM concentration; n>3
[4] = test system: Kv1.3 channel; assay: Patch-clamp inhibition of Kv1.3 channel current in transfected HEK293 cells; assay type: cell-based
[5] = test system: BKCa channel; assay: Patch-clamp inhibition of BKCa channel current in transfected HEK293 cells; assay type: cell-based; details: 1 µM concentration; n>3
[6] = test system: TRPV1 channel; assay: Patch-clamp inhibition of TRPV1 channel current in transfected HEK293 cells; assay type: cell-based; details: 1 µM concentration; n>3
[7] = test system: Kv1.1 channel; assay: Patch-clamp inhibition of Kv1.1 channel current in transfected HEK293 cells; assay type: cell-based; details: 1 µM ImKTx104 (Fig. S2); n>3
[8] = test system: Kv1.2 channel; assay: Patch-clamp inhibition of Kv1.2 channel current in transfected HEK293 cells; assay type: cell-based; details: 1 µM ImKTx104 (Fig. S2); n>3
[9] = test system: Kv1.x channel; details: cited from earlier work

T1 sequence (P51787 whole entry, looked up): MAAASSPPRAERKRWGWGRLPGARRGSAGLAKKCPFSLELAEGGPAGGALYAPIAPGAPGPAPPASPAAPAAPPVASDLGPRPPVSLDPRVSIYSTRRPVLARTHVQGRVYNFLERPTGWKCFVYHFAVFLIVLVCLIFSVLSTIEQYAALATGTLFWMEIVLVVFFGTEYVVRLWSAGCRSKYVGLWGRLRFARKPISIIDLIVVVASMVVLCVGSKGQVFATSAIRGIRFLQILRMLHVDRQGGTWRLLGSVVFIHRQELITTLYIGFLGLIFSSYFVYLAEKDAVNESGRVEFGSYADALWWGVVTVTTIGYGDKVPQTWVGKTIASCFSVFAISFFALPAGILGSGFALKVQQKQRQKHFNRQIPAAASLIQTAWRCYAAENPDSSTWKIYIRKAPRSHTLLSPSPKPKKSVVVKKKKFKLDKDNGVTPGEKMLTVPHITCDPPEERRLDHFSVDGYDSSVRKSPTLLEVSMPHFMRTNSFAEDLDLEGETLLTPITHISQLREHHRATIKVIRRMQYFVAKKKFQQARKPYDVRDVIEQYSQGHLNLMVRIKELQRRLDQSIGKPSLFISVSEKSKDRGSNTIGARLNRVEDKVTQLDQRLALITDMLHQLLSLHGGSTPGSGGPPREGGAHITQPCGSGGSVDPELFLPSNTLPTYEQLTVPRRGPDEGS

Compound | Effect on KCNQ1 channel (in words) ([1]; 10 µM concentration) | inhibition at 10 µM [2] | Effect on Kv1.3 channel (in words) [4] | inhibition at 1 µM [2] | also measured
CSCC[C@@H]1NC(=O)[C@@H]2CCCN2C(=O)[C@@H]2CSSC[C@@H]3NC(=O)[C@H](C(C)C)NC(=O)CNC(=O)[C@H](CC(=O)O)NC(=O)[C@H](CC(=O)O)NC(=O)[C@H](CSSC[C@H](NC(=O)CNC(=O)[C@@H](N)C(C)C)C(=O)N[C@@H](CCC(=O)O)C(=O)N[C@@H](CCC(=O)O)C(=O)N2)NC(=O)[C@H]([C@@H](C)O)NC(=O)[C@@H]2CCCN2C(=O)[C@H](CCCCN)NC(=O)[C@H](C)NC(=O)[C@H](CC(N)=O)NC(=O)[C@H](CCCCN)NC(=O)CNC(=O)[C@H](CCCCN)NC(=O)[C@H](CSSC[C@@H](C(=O)N[C@@H](CC(N)=O)C(=O)N[C@H](C(=O)O)C(C)C)NC(=O)[C@H](CC(N)=O)NC3=O)NC(=O)[C@H](Cc2c[nH]cn2)NC1=O [BmP02, reference compound] (H-VGCEECPMHCKGKNAKPTCDDGVCNCNV-OH; disulfide 3-19, 6-24, 10-26) | only weak inhibitors | 23.3% |  |  | 
CC[C@H](C)[C@@H]1NC(=O)[C@@H](NC(=O)[C@H](C)NC(=O)[C@H](CC(N)=O)NC(=O)CN)CSSC[C@@H](C(=O)N[C@@H](CC(=O)O)C(=O)N[C@@H](CCCCN)C(=O)O)NC(=O)[C@H](C)NC(=O)[C@H](CCCCN)NC(=O)[C@H](CC(=O)O)NC(=O)[C@@H]2CSSC[C@H](NC(=O)[C@H](C(C)C)NC(=O)[C@H](CCC(=O)O)NC1=O)C(=O)N[C@@H](CC(C)C)C(=O)N[C@@H](CCC(N)=O)C(=O)N[C@@H](Cc1c[nH]cn1)C(=O)N[C@@H]([C@@H](C)O)C(=O)NCC(=O)N[C@@H](CC(N)=O)C(=O)N1CCC[C@H]1C(=O)N[C@@H](C)C(=O)N[C@@H](CCC(=O)O)C(=O)N2 [HeTx203] (H-GNACIEVCLQHTGNPAECDKACDK-OH; disulfide 4-22, 8-18) | only weakly inhibited | 17.8% |  |  | 
CC[C@H](C)[C@@H]1NC(=O)[C@@H](NC(=O)[C@H](C)NC(=O)[C@H](CC(N)=O)NC(=O)CN)CSSC[C@@H](C(=O)N[C@@H](CC(=O)O)C(=O)N[C@@H](CCCCN)C(=O)O)NC(=O)[C@@H]2CCCN2C(=O)[C@H](CCCCN)NC(=O)[C@H](CC(=O)O)NC(=O)[C@@H]2CSSC[C@H](NC(=O)[C@H](C(C)C)NC(=O)[C@H](CCC(=O)O)NC1=O)C(=O)N[C@@H](CC(C)C)C(=O)N[C@@H](CCC(N)=O)C(=O)N[C@@H](Cc1c[nH]cn1)C(=O)N[C@@H]([C@@H](C)O)C(=O)NCC(=O)N[C@@H](CC(N)=O)C(=O)N1CCC[C@H]1C(=O)N[C@@H](C)C(=O)N[C@@H](CCC(=O)O)C(=O)N2 [HeTx204] (H-GNACIEVCLQHTGNPAECDKPCDK-OH; disulfide 4-22, 8-18) | effectively blocked | 44.9% | effectively blocked |  | Effect on SKCa channel (in words) [3]: negligible effects; Washout of toxin from KCNQ1 channel (in words) ([1]; 10 µM): could not be removed; Effect on BKCa channel (in words) [5]: negligible effects; Effect on TRPV1 channel (in words) [6]: negligible effects
CC[C@H](C)[C@@H]1NC(=O)[C@H]([C@@H](C)O)NC(=O)[C@H](C)NC(=O)[C@H](Cc2ccc(O)cc2)NC(=O)[C@@H]2CSSC[C@@H](C(=O)N[C@@H](CCSC)C(=O)O)NC(=O)[C@H](CCCCN)NC(=O)[C@@H]3CSSC[C@H](NC(=O)[C@H](CC(=O)O)NC(=O)[C@H](CCC(=O)O)NC(=O)[C@H](Cc4c[nH]cn4)NC(=O)[C@H]([C@@H](C)O)NC(=O)[C@H](C(C)C)NC(=O)[C@@H](NC(=O)[C@H](C)N)CSSC[C@H](NC(=O)[C@H]([C@@H](C)O)NC(=O)CNC1=O)C(=O)N[C@@H](C(C)C)C(=O)N[C@@H](CC(=O)O)C(=O)NCC(=O)N[C@@H](CCCCN)C(=O)N3)C(=O)N[C@@H]([C@@H](C)O)C(=O)N[C@@H](CC(C)C)C(=O)N[C@@H](CC(C)C)C(=O)N2 [ImKTX104-D14A] (H-ACVTHEDCTLLCYATIGTCVDGKCKCM-OH; disulfide 2-19, 8-24, 12-26) |  |  |  | 25.6% | 
CC[C@H](C)[C@@H]1NC(=O)[C@H]([C@@H](C)O)NC(=O)[C@H](CC(=O)O)NC(=O)[C@H](Cc2ccc(O)cc2)NC(=O)[C@@H]2CSSC[C@@H](C(=O)N[C@@H](CCSC)C(=O)O)NC(=O)[C@H](CCCCN)NC(=O)[C@@H]3CSSC[C@H](NC(=O)[C@H](CC(=O)O)NC(=O)[C@H](CCC(=O)O)NC(=O)[C@H](Cc4c[nH]cn4)NC(=O)[C@H]([C@@H](C)O)NC(=O)[C@H](C(C)C)NC(=O)[C@@H](NC(=O)[C@H](C)N)CSSC[C@H](NC(=O)[C@H]([C@@H](C)O)NC(=O)CNC1=O)C(=O)N[C@@H](C(C)C)C(=O)N[C@@H](CC(=O)O)C(=O)NCC(=O)N[C@@H](C)C(=O)N3)C(=O)N[C@@H]([C@@H](C)O)C(=O)N[C@@H](CC(C)C)C(=O)N[C@@H](CC(C)C)C(=O)N2 [ImKTX104-K23A] (H-ACVTHEDCTLLCYDTIGTCVDGACKCM-OH; disulfide 2-19, 8-24, 12-26) |  |  |  | 15.5% | 
CC[C@H](C)[C@@H]1NC(=O)[C@H]([C@@H](C)O)NC(=O)[C@H](CC(=O)O)NC(=O)[C@H](Cc2ccc(O)cc2)NC(=O)[C@@H]2CSSC[C@@H](C(=O)N[C@@H](CCSC)C(=O)O)NC(=O)[C@H](C)NC(=O)[C@@H]3CSSC[C@H](NC(=O)[C@H](CC(=O)O)NC(=O)[C@H](CCC(=O)O)NC(=O)[C@H](Cc4c[nH]cn4)NC(=O)[C@H]([C@@H](C)O)NC(=O)[C@H](C(C)C)NC(=O)[C@@H](NC(=O)[C@H](C)N)CSSC[C@H](NC(=O)[C@H]([C@@H](C)O)NC(=O)CNC1=O)C(=O)N[C@@H](C(C)C)C(=O)N[C@@H](CC(=O)O)C(=O)NCC(=O)N[C@@H](CCCCN)C(=O)N3)C(=O)N[C@@H]([C@@H](C)O)C(=O)N[C@@H](CC(C)C)C(=O)N[C@@H](CC(C)C)C(=O)N2 [ImKTX104-K25A] (H-ACVTHEDCTLLCYDTIGTCVDGKCACM-OH; disulfide 2-19, 8-24, 12-26) |  |  |  | 21.4% | 
CC[C@H](C)[C@@H]1NC(=O)[C@H]([C@@H](C)O)NC(=O)[C@H](CC(=O)O)NC(=O)[C@H](Cc2ccc(O)cc2)NC(=O)[C@@H]2CSSC[C@@H](C(=O)N[C@@H](CCSC)C(=O)O)NC(=O)[C@H](CCCCN)NC(=O)[C@@H]3CSSC[C@H](NC(=O)[C@H](CC(=O)O)NC(=O)[C@H](CCC(=O)O)NC(=O)[C@H](Cc4c[nH]cn4)NC(=O)[C@H]([C@@H](C)O)NC(=O)[C@H](C(C)C)NC(=O)[C@@H](NC(=O)[C@H](C)N)CSSC[C@H](NC(=O)[C@H]([C@@H](C)O)NC(=O)CNC1=O)C(=O)N[C@@H](C(C)C)C(=O)N[C@@H](CC(=O)O)C(=O)NCC(=O)N[C@@H](CCCCN)C(=O)N3)C(=O)N[C@@H]([C@@H](C)O)C(=O)N[C@@H](CC(C)C)C(=O)N[C@@H](CC(C)C)C(=O)N2 [ImKTx104] (H-ACVTHEDCTLLCYDTIGTCVDGKCKCM-OH; disulfide 2-19, 8-24, 12-26) | effectively blocked | 41.7% | minor effect | 27.5% | Effect on Kv1.1 channel (in words) [7]: no effect; Effect on SKCa channel (in words) [3]: negligible effects; τoff (time constant of washing off process), KCNQ1 channel current ([1]; measured at 10 µM): 11.73 s; τon (time constant of binding process), KCNQ1 channel current ([1]; measured at 10 µM): 81.32 s; Effect on BKCa channel (in words) [5]: negligible effects; Effect on Kv1.2 channel (in words) [8]: no effect; Effect on TRPV1 channel (in words) [6]: negligible effects
CC[C@H](C)[C@@H]1NC(=O)[C@H](C)NC(=O)[C@H](CCC(=O)O)NC(=O)[C@H](CO)NC(=O)[C@H]([C@@H](C)CC)NC(=O)[C@@H]2CCCN2C(=O)[C@@H](NC(=O)[C@H](CC(=O)O)NC(=O)CNC(=O)[C@@H](N)CCC(=O)O)CSSC[C@@H]2NC(=O)[C@H](C(C)C)NC(=O)[C@H](CCC(=O)O)NC(=O)[C@H](C(C)C)NC(=O)[C@H](CCCCN)NC(=O)[C@H](CCC(=O)O)NC(=O)[C@H](CCCCN)NC(=O)[C@@H]3CSSC[C@@H](C(=O)N[C@@H](CO)C(=O)NCC(=O)O)NC(=O)[C@H](CCCCN)NC(=O)[C@H](CSSC[C@H](NC(=O)[C@H](CCCCN)NC1=O)C(=O)N[C@@H](C(C)C)C(=O)N[C@@H](CCC(=O)O)C(=O)N[C@@H](CCCCN)C(=O)N3)NC(=O)[C@H](C(C)C)NC(=O)CNC(=O)[C@@H]1CCCN1C(=O)[C@H](CCC(=O)O)NC2=O [LmKTx2] (H-EGDCPISEAIKCVEKCKEKVEVCEPGVCKCSG-OH; disulfide 4-23, 12-28, 16-30) | only weakly inhibited | 27.7% | minor effect |  | 
CC[C@H](C)[C@@H]1NC(=O)[C@H](C(C)C)NC(=O)[C@@H]2CSSC[C@@H]3NC(=O)[C@H](CCCCN)NC(=O)[C@H](CCC(N)=O)NC(=O)[C@@H]4CCCN4C(=O)CNC(=O)[C@H](CC(=O)O)NC(=O)[C@H](CSSC[C@H](NC(=O)[C@H](CO)NC(=O)[C@H](CCC(=O)O)NC(=O)[C@H](CCCCN)NC(=O)[C@@H]4CCCN4C(=O)[C@H](CCC(=O)O)NC(=O)[C@H](CCC(=O)O)NC(=O)[C@@H](N)CC(=O)O)C(=O)N[C@@H](CO)C(=O)N[C@@H](CC(=O)O)C(=O)N[C@@H](CCC(=O)O)C(=O)N[C@@H](CCSC)C(=O)N2)NC(=O)[C@H](C(C)C)NC(=O)CNC(=O)[C@H]([C@@H](C)O)NC(=O)[C@H](CO)NC(=O)[C@H](Cc2ccc(O)cc2)NC(=O)[C@H](CCC(=O)O)NC(=O)[C@H](CCC(=O)O)NC(=O)CNC(=O)[C@H](CCCCN)NC(=O)[C@H](CSSC[C@@H](C(=O)N[C@@H](CO)C(=O)N[C@@H](CC(=O)O)C(=O)O)NC(=O)[C@H](CCCCN)NC3=O)NC(=O)[C@H](Cc2ccc(O)cc2)NC1=O [PbTx1, reference compound] (H-DEEPKESCSDEMCVIYCKGEEYSTGVCDGPQKCKCSD-OH; disulfide 8-27, 13-33, 17-35) |  | 21.4% |  |  | Effect on KCNQ1 channel (in words) [1]: only weak inhibitors; Block of Kv1.x channel (in words) [9]: low activity (micromolar range)
EDKLKCTKTDDCAKYCSQFTDVHPACLGGYCECLRWEGGISS (disulfide 6-26, 12-31, 16-33) [StKTx23] | did not inhibit | 4.21% | effectively blocked |  | 
